The assay has as its system OCI-LY10 cells. The assay is described as follows: Cell proliferation assay (MTS) in OCI-LY10 cells. Type of assay: cell-based. The conditions noted are these: Homo sapiens. From the text:
MTS testing kit was purchased from Promega (Madison, Wis., USA). The RPMI-1640, Fetal bovine serum and Penicillin-Streptomycin were purchased from BI (Biological Industries, Beit Haemek, Israel). Dimethyl sulfoxide (DMSO) was purchased from Sigma (St. Louis., Mo., USA). […] To investigate whether a compound is able to inhibit the activity of BTK in cells, a mechanism-based assay using OCI-LY10 cells was developed. In this assay, inhibition of BTK was detected by the inhibition of OCI-LY10 cells proliferation. Cells were plated into 96-well plates at a density of 10000 cells/well. Plates were incubated at 37° C., with 5% CO2 for 4 h. […] Plates were incubated at 37° C., with 5% CO2 for 72 h. 20 μl MTS was added into each well and the plates were incubated at 37° C., with 5% CO2 for exactly 2 h. The absorbance was measured by a microplate reader at 490 nm. IC50 was calculated using GraphPad Prism 5.0 software. Select compounds prepared as described above were assayed according to the biological procedures described herein.

[1] abbreviates: inhibition of OCI-LY10 cells proliferation, 72 h incubation, MTS, absorbance at 490 nm, read-out: OCI-LY10 IC50.

Where two headings read alike, the source gives them in different places.

In general, IC50 refers to the concentration that gives 50% inhibition. With `COc1ccc(F)cc1C(=O)NCc1ccc(-c2cn(C3CCOCC3)c3c(=O)[nH]nc(N)c23)cc1` [Example 37, N-(4-(4-amino-7-oxo-1-(tetrahydro-2H-pyran-4-yl)-6,7-dihydro-1H-pyrrolo [2,3-d]pyridazin-3-yl)benzyl)-5-fluoro-2-methoxybenzamide], under setting [1], the IC50 was determined as 9 nM.

Turning to `COc1ccc(F)cc1C(=O)NCc1ccc(-c2nn(C(C)C(C)(C)C)c3c(=O)[nH]nc(N)c23)cc1` (stereo not drawn) [Example 70, N-(4-(4-amino-1-(3,3-dimethylbutan-2-yl)-7-oxo-6,7-dihydro-1H-pyrazolo[3,4-d]pyridazin-3-yl)benzyl)-5-fluoro-2-methoxybenzamide], the IC50 under setting [1] worked out at 1 nM.

As to `COc1ccc(F)cc1C(=O)NCc1ccc(-n2nc(C(C)(C)C)c3c(=O)[nH]nc(N)c32)cc1` [Example 94, N-(4-(7-amino-3-(tert-butyl)-4-oxo-4,5-dihydro-1H-pyrazolo[3,4-d]pyridazin-1-yl)benzyl)-5-fluoro-2-methoxybenzamide], the IC50 under setting [1] worked out at 1 nM.

In the case of `COc1ccc(F)cc1C(=O)NCc1ccc(-c2cn([C@@H]3C[C@@H]3F)c3c(=O)[nH]nc(N)c23)cc1F` [Example 59, N-(4-(4-amino-1-((1R,2S)-2-fluorocyclopropyl)-7-oxo-6,7-dihydro-1H-pyrrolo[2,3-d]pyridazin-3-yl)-2-fluorobenzyl)-5-fluoro-2-methoxybenzamide], under setting [1], the IC50 is 62 nM.

Turning to `COc1ccc(F)cc1C(=O)NCc1ccc(-n2nc(C3CC3(F)F)c3c(=O)[nH]nc(N)c32)cc1` (stereo not drawn) [Example 99, N-(4-(7-amino-3-(2,2-difluorocyclopropyl)-4-oxo-4,5-dihydro-1H-pyrazolo[3,4-d]pyridazin-1-yl)benzyl)-5-fluoro-2-methoxybenzamide], under setting [1], the IC50 stood at 65 nM.

Regarding `CCS(=O)(=O)N1CC[C@@H](n2cc(-c3ccc(CNC(=O)c4cc(F)ccc4OC)cc3)c3c(N)n[nH]c(=O)c32)C1` [Example 110, (R)-N-(4-(4-amino-1-(1-(ethylsulfonyl)pyrrolidin-3-yl)-7-oxo-6,7-dihydro-1H-pyrrolo[2,3-d]pyridazin-3-yl)benzyl)-5-fluoro-2-methoxybenzamide], under setting [1], the IC50 was determined as 23 nM.

On to `COc1ccc(F)cc1C(=O)NCc1ccc(-c2nn(C(CO)C(F)(F)F)c3c(=O)[nH]nc(N)c23)cc1` (stereo not drawn) [Example 78, N-(4-(4-amino-7-oxo-1-(1,1,1-trifluoro-3-hydroxypropan-2-yl)-6,7-dihydro-1H-pyrazolo[3,4-d]pyridazin-3-yl)benzyl)-5-fluoro-2-methoxybenzamide], for which the IC50 under setting [1] is 26 nM.

With `COc1ccc(F)cc1C(=O)NCc1ccc(-c2nn([C@@H](C)C(F)(F)F)c3c(=O)[nH]nc(N)c23)cc1` [Example 40a, (S)-N-(4-(4-amino-7-oxo-1-(1,1,1-trifluoropropan-2-yl)-6,7-dihydro-1H-pyrazolo[3,4-d]pyridazin-3-yl)benzyl)-5-fluoro-2-methoxybenzamide], under setting [1], the IC50 came to 7 nM.

On to `COc1ccc(F)cc1C(=O)NCc1ccc(-c2cn([C@@H]3CCN(S(C)(=O)=O)C3)c3c(=O)[nH]nc(N)c23)cc1` [Example 50, (R)-N-(4-(4-amino-1-(1-(methylsulfonyl)pyrrolidin-3-yl)-7-oxo-6,7-dihydro-1H-pyrrolo[2,3-d]pyridazin-3-yl)benzyl)-5-fluoro-2-methoxybenzamide], for which, under setting [1], the IC50 was 19 nM.

Regarding `COc1ccc(F)cc1C(=O)NCc1ccc(-c2nn(C3(C(F)F)CC3)c3c(=O)[nH]nc(N)c23)cc1` [Example 84, N-(4-(4-amino-1-(1-(difluoromethyl)cyclopropyl)-7-oxo-6,7-dihydro-1H-pyrazolo[3,4-d]pyridazin-3-yl)benzyl)-5-fluoro-2-methoxybenzamide], the IC50 under setting [1] came out at 4 nM.

`COc1ccc(F)cc1C(=O)NCc1ccc(-c2nn([C@H]3CCCC3(F)F)c3c(=O)[nH]nc(N)c23)cc1` [Example 64, (S)-N-(4-(4-amino-1-(2,2-difluorocyclopentyl)-7-oxo-6,7-dihydro-1H-pyrazolo[3,4-d]pyridazin-3-yl)benzyl)-5-fluoro-2-methoxybenzamide]: the IC50 under setting [1] turned out to be 1 nM.

`COc1ccc(F)cc1C(=O)NCc1ccc(-c2nn([C@@H](C(F)F)C3CC3)c3c(=O)[nH]nc(N)c23)cc1` [Example 89, (R)-N-(4-(4-amino-1-(1-cyclopropyl-2,2-difluoroethyl)-7-oxo-6,7-dihydro-1H-pyrazolo[3,4-d]pyridazin-3-yl)benzyl)-5-fluoro-2-methoxybenzamide]: the IC50 under setting [1] amounted to 1 nM.

As to `COc1ccc(F)cc1C(=O)NCc1ccc(-c2nn(C(C)C(F)F)c3c(=O)[nH]nc(N)c23)cc1` (stereo not drawn) [Example 76, N-(4-(4-amino-1-(1,1-difluoropropan-2-yl)-7-oxo-6,7-dihydro-1H-pyrazolo [3,4-d]pyridazin-3-yl)benzyl)-5-fluoro-2-methoxybenzamide], under setting [1], the IC50 was determined as 1 nM.

Consider `COc1ccc(F)cc1C(=O)NCc1ccc(-c2cn([C@@H]3CCN(C(=O)N4CCC4)C3)c3c(=O)[nH]nc(N)c23)cc1` [Example 107, (R)-N-(4-(4-amino-1-(1-(azetidine-1-carbonyl)pyrrolidin-3-yl)-7-oxo-6,7-dihydro-1H-pyrrolo[2,3-d]pyridazin-3-yl)benzyl)-5-fluoro-2-methoxybenzamide], for which, under setting [1], the IC50 is 11 nM.

Regarding `COc1ccc(F)cc1C(=O)NCc1ccc(-n2nc(C(C)C3CC3)c3c(=O)[nH]nc(N)c32)cc1` (stereo not drawn) [Example 96, N-(4-(7-amino-3-(1-cyclopropylethyl)-4-oxo-4,5-dihydro-1H-pyrazolo[3,4-d]pyridazin-1-yl)benzyl)-5-fluoro-2-methoxybenzamide], the IC50 under setting [1] was 1 nM.

For `COc1ccc(F)cc1C(=O)NCc1ccc(-c2nc(C3CCCC3)n3ccnc(N)c23)cc1` [Example 13, N-(4-(8-amino-3-cyclopentylimidazo [l,5-a]pyrazin-1-yl)benzyl)-5-fluoro-2-methoxybenzamide], under setting [1], the IC50 amounted to 2 nM.

With `COc1ccc(F)cc1C(=O)NCc1ccc(-n2nc(C3CC(F)(F)C3)c3c(=O)[nH]nc(N)c32)cc1` [Example 97, N-(4-(7-amino-3-(3,3-difluorocyclobutyl)-4-oxo-4,5-dihydro-1H-pyrazolo[3,4-d]pyridazin-1-yl)benzyl)-5-fluoro-2-methoxybenzamide], under setting [1], the IC50 was found to be 23 nM.

Regarding `COc1ccc(F)cc1C(=O)NCc1ccc(-c2nn(C3CCCC3)c3c(=O)[nH]nc(N)c23)cc1F` [Example 62, N-(4-(4-amino-1-cyclopentyl-7-oxo-6,7-dihydro-1H-pyrazolo[3,4-d]pyridazin-3-yl)-2-fluorobenzyl)-5-fluoro-2-methoxybenzamide], the IC50 (OCI-Ly10, 72 h, read-out: OCI-LY10 IC50 (nM)) came out at 1 nM.

In the case of `COc1ccc(F)cc1C(=O)NCc1ccc(-n2cc(C3CCCCC3)c3c(=O)[nH]nc(N)c32)cc1` [Example 27, N-(4-(7-amino-3-cyclohexyl-4-oxo-4,5-dihydro-1H-pyrrolo[2,3-d]pyridazin-1-yl)benzyl)-5-fluoro-2-methoxybenzamide], the IC50 under setting [1] is 1 nM.

As to `COc1ccc(F)cc1C(=O)NCc1ccc(-n2nc(C(C)C(F)(F)F)c3c(=O)[nH]nc(N)c32)cc1` (stereo not drawn) [Example 41, N-(4-(7-amino-4-oxo-3-(1,1,1-trifluoropropan-2-yl)-4,5-dihydro-1H-pyrazolo[3,4-d]pyridazin-1-yl)benzyl)-5-fluoro-2-methoxybenzamide], the IC50 under setting [1] stood at 18 nM.

Regarding `COc1ccc(F)cc1C(=O)NCc1ccc(-c2cn(C3CC(F)(F)C3)c3c(=O)[nH]nc(N)c23)cn1` [Example 55], the IC50 under setting [1] was 28 nM.

The record behind these values is patent US20230145305A1, “COMPOUNDS USEFUL AS KINASE INHIBITORS” (Fochon Biosciences, Ltd., priority 2020, published 2023).
